Measured values from article PMC7011086 (Frontiers in Pharmacology, 2020).

Legend:
washed platelets [1] = experiment: Flow cytometry: fibrinogen binding and P-selectin exposure; format: cell-based, human
Method: Whole blood was centrifuged at 250 × g for 10 min at 22°C to obtain PRP. To obtain washed platelets (WP), PRP was centrifuged twice (1,000 × g, 10 min, 20°C) in the presence of 1.25 μg/ml prostacyclin. The final platelet pellet was resuspended in modified Tyrode's-HEPES buffer, (20 mM N-2-hydroxyethylpiperazine-N'-2-ethanesulfonic acid, 5 mM glucose, 134 mM NaCl, 0.34 mM Na2HPO4, 2.9 mM KCl, 12 mM NaHCO3, and 1 mM MgCl2, pH 7.3) and rested for 30 min at 30°C before experiments. All protocols using human blood samples were approved by the Research Ethics Committees of the Federal University of […] and the University of Reading. WP (2-3 × 10^8 platelets/ml) were incubated with PESc at the same concentrations and conditions used for platelet aggregation experiments. Then WP were incubated for 10 min with thrombin (0.02 U/ml). FITC-conjugated PAC-1 antibody was added for 10 min in the dark and fluorescence read using a flow cytometer FACS Calibur (BD Biosciences, Franklin Lakes, USA). […] FITC-conjugated fibrinogen and PE/Cy5-conjugated anti-human CD62P were incubated for 30 min, then platelets were read after a 25-fold dilution with Tyrodes-HEPES buffer.

washed platelets [2] = experiment: Washed platelet aggregation (myricetin, gallic acid); format: cell-based, human; settings: for inhibition of platelet aggregation (in words): 75-300 μM; for inhibition at 30 µM: Homo sapiens, Platelet
Method: Whole blood was centrifuged at 250 × g for 10 min at 22°C to obtain PRP. To obtain washed platelets (WP), PRP was centrifuged twice (1,000 × g, 10 min, 20°C) in the presence of 1.25 μg/ml prostacyclin. The final platelet pellet was resuspended in modified Tyrode's-HEPES buffer, (20 mM N-2-hydroxyethylpiperazine-N'-2-ethanesulfonic acid, 5 mM glucose, 134 mM NaCl, 0.34 mM Na2HPO4, 2.9 mM KCl, 12 mM NaHCO3, and 1 mM MgCl2, pH 7.3) and rested for 30 min at 30°C before experiments. All protocols using human blood samples were approved by the Research Ethics Committees of the Federal University of […] and the University of Reading. PRP and WP aggregation assays were performed in a four-channel aggregometer (Helena Biosciences, […], England). […] Aggregation traces from at least three different donors were recorded for 5 min.

PDI = settings: insulin turbidimetry, cited from earlier work; for inhibition of PDI (in words): ref Jasuja et al., 2012
recombinant ERp5 [3] = molecular target: T1, recombinant ERp5 (Homo sapiens, UniProt Q15084); experiment: biochemical
T1 sequence (Q15084 20-440): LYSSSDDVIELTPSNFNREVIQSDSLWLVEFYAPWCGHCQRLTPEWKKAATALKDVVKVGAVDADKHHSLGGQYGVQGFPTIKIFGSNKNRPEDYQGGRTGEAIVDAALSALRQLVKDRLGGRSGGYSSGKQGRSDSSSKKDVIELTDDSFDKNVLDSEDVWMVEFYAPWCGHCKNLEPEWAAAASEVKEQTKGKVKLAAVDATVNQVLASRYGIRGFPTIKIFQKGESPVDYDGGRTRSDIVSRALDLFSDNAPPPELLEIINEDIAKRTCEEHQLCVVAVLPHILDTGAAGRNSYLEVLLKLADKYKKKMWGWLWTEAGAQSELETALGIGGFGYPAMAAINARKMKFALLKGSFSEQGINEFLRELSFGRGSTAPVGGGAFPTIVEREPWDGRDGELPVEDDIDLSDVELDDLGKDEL

recombinant ERp5 [4] = molecular target: T1, recombinant ERp5; settings: ERp5 2 µM, myricetin 0.01–10 µM, Mean ± SEM
[5] = tested on: whole blood on collagen-coated Vena8 bio-chips; experiment: Thrombus formation under flow; format: cell-based, human; settings: 30 µM, shear rate 45 dyn/cm^2, 10 min
Method: Fluorescence intensity was calculated using NIS Elements Software (Nikon, Tokyo, Japan).

recombinant PDI [6] = molecular target: T2, recombinant PDI (Homo sapiens, UniProt P07237); settings: Kq=KSV/τ0, τ0 10^-8 s
T2 sequence (P07237 18-508): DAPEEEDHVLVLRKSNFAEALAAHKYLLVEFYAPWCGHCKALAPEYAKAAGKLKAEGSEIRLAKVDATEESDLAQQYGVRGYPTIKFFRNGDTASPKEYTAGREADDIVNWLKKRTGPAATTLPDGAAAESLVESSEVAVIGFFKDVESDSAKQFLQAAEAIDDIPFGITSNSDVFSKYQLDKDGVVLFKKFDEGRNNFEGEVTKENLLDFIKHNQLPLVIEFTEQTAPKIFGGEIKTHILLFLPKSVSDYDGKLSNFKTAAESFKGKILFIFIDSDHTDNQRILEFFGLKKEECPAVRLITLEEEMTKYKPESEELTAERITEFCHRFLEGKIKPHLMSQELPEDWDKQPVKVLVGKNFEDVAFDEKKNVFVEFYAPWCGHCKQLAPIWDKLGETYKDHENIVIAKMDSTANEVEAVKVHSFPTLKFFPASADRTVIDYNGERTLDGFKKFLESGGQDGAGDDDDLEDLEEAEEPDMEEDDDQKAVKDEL

[7] = set-up: method as in Dang et al., 2014; settings: rats, single oral dose of 100 mg/kg; ref Dang et al., 2014; cited from earlier work
recombinant ERp57 = molecular target: T3, recombinant ERp57 (Homo sapiens, UniProt P30101); experiment: biochemical
T3 sequence (P30101 25-505): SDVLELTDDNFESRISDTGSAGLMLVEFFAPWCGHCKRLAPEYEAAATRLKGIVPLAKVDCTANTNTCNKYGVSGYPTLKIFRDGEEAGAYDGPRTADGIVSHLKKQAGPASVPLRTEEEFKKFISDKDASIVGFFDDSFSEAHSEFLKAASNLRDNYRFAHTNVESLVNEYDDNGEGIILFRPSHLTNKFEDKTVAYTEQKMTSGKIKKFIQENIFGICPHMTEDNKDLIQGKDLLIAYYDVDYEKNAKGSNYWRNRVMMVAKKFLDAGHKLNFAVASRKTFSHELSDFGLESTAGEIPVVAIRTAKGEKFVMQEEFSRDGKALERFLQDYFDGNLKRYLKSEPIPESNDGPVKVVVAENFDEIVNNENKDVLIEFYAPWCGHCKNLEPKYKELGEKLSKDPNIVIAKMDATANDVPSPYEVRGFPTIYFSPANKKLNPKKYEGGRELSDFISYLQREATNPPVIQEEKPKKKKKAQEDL

recombinant PDI [8] = molecular target: T2, recombinant PDI; experiment: biochemical
recombinant ERp5 [9] = molecular target: T1, recombinant ERp5; experiment: Reductase activity (Di-E-GssG), ERp5; format: biochemical; settings: ERp5 2 µM, myricetin 0.01–10 µM, Di-E-GssG probe
recombinant ERp72 = molecular target: T4, recombinant ERp72 (Homo sapiens, UniProt P13667); experiment: Protein fluorescence quenching, ERp72; format: binding
T4 sequence (P13667 21-645): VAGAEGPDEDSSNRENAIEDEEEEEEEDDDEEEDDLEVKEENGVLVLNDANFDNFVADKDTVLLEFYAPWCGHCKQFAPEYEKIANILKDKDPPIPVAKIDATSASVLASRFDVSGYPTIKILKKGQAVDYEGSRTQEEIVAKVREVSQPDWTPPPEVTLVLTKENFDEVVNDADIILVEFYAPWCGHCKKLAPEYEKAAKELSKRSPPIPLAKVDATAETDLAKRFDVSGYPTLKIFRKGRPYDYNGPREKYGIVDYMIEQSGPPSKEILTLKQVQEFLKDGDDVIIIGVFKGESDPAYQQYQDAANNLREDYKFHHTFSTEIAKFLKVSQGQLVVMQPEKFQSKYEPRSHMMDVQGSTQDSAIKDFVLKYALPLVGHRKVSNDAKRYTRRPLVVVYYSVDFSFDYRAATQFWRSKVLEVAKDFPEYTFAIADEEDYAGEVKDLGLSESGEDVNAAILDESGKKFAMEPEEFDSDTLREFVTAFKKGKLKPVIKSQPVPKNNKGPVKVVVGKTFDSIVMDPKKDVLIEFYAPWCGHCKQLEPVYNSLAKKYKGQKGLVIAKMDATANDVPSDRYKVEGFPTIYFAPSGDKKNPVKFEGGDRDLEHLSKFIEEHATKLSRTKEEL

washed platelets [10] = experiment: Platelet spreading on collagen or fibrinogen; format: cell-based, human
Method: Non-adhered platelets were removed and the coverslip washed three times with PBS. Adhered platelets were fixed using 0.2% paraformaldehyde for 10 min. This solution was then removed and coverslips washed three times with PBS before the addition of 0.1% (v/v) Triton-X to permeabilize the cells. […] Coverslips were mounted onto microscope glass slides and imaged using a 100× oil immersion lens on a Nikon A1-R Confocal microscope.

recombinant PDI [11] = molecular target: T2, recombinant PDI; experiment: Reductase activity (Di-E-GssG), PDI; format: biochemical; settings: PDI 2 µM, myricetin 0.01–10 µM, Di-E-GssG probe
VASP (Ser239) = VASP (Ser239) phosphorylation immunoblotting; format: cell-based, human; settings: resting washed platelets, 7.5, 15 and 30 μM, 10 min
Method: After protein separation, semi-dry transfer was performed at 15V for 2 h using a BioRad Trans-blot semidry blotter. Membranes were blocked with 5% bovine serum albumin (BSA) for 1 h and incubated with primary antibodies against VASP ([…]) or GAPDH at 1:1,000 v/v dilution overnight. After washing the primary antibody off, […] secondary antibody was incubated for 1 h at room temperature at 1:4,000 v/v dilution. Membranes were visualized using a Typhoon imaging system (GE Healthcare, Hatfield, UK).

O=C(O)c1cc(O)c(O)c(O)c1 [Gallic acid, gallic acid]
fibrinogen binding (in words) (washed platelets [1]; CRP-activated washed platelets, 150 μM): only able to reduce fibrinogen binding when incubated at 150 μM
inhibition of platelet aggregation (in words) (washed platelets [2]; TRAP-6-induced): unable to inhibit platelet aggregation, except at the higher concentration used (300 μM)
inhibition of platelet aggregation (in words) (washed platelets [2]; collagen-induced): unable to inhibit platelet aggregation

O=c1c(O[C@@H]2O[C@H](CO)[C@@H](O)[C@H](O)[C@H]2O)c(-c2ccc(O)c(O)c2)oc2cc(O)cc(O)c12 [isoquercetin]
inhibition of PDI reductase activity (in words) (PDI; ref Stopa et al., 2017): potent inhibitors of PDI reductase activity

O=c1c(O)c(-c2ccc(O)c(O)c2)oc2cc(O)cc(O)c12 [Quercetin, quercetin]
inhibition of PDI (in words) (PDI): weak inhibitor of PDI

O=c1c(O)c(-c2cc(O)c(O)c(O)c2)oc2cc(O)cc(O)c12 [Myricetin]
Kd (recombinant ERp5 [3]): 1740 nM
K SV (Stern-Volmer constant) (recombinant ERp5 [4]): 48,750 ± 9,554 M^-1
thrombus formation (fluorescence intensity) (in words) [5]: decreased thrombus formation
Kq (quenching rate constant) (recombinant PDI [6]): 2.12e+12 M⁻¹ s⁻¹
fibrinogen binding (in words) (washed platelets [1]; CRP-activated washed platelets, 15 μM): abolish
fibrinogen binding (in words) (washed platelets [1]; TRAP-6-activated washed platelets): still inhibited fibrinogen binding
peak plasma concentration [7]: 10 µM
Kd (recombinant ERp57): 1830 nM
inhibition at 30 µM (washed platelets [2]; TRAP-6-induced): ~60%
inhibition at 30 µM (washed platelets [2]; collagen-induced): ~80%
Kd (recombinant PDI [8]): 4260 nM
inhibition of reductase activity (in words) (recombinant ERp5 [9]): inhibit both PDI and ERp5
K SV (Stern-Volmer constant) (recombinant ERp72; ERp72 2 µM, myricetin 0.01–10 µM, Mean ± SEM): 27,515 ± 5,675 M^-1
Kq (quenching rate constant) (recombinant ERp72; ERp72, Kq=KSV/τ0, τ0 10^-8 s): 2.75e+12 M⁻¹ s⁻¹
K b (binding constant) (recombinant ERp72; ERp72, determined for highest concentration tested): 394000 M⁻¹
Kd (recombinant ERp72; read-out: K d (dissociation constant)): 2530 nM
inhibition at 30 µM (washed platelets [10]; Homo sapiens, Platelet, collagen-coated coverslips, 30 μM): ~25%
platelet spreading (in words) (washed platelets [10]; fibrinogen-coated coverslips, 7.5-30 μM): no effect
inhibition of reductase activity (in words) (recombinant PDI [11]): inhibit both PDI and ERp5, being more potent against PDI
VASP phosphorylation (in words) (VASP (Ser239)): did not induce VASP phosphorylation

C[C@@H]1O[C@@H](OC[C@H]2O[C@@H](Oc3c(-c4ccc(O)c(O)c4)oc4cc(O)cc(O)c4c3=O)[C@H](O)[C@@H](O)[C@@H]2O)[C@H](O)[C@H](O)[C@H]1O [rutin]
inhibition of PDI (in words) (PDI): potent inhibitors of PDI reductase activity
